# Laboratory results taken from ChEMBL document CHEMBL1201862, “PubChem BioAssay data set” (2004).
# Calls of active or inactive are those of the source.
# Assays:
# Estrogen receptor beta = Estrogen receptor beta (Homo sapiens, UniProt Q92731); assay: blockers of SRC-3 recruitment to ERβ – biochemical, ELISA, streptavidin-HRP readout, orthogonal assay, confirmation (AID 1060)
# [1] = biological target: Intestinal-type alkaline phosphatase (Mus musculus, UniProt P24822); assay: PubChem AID 488785; assay type: functional
# Intestinal-type alkaline phosphatase (Mus musculus, UniProt P24822), sequence (P24822 whole entry): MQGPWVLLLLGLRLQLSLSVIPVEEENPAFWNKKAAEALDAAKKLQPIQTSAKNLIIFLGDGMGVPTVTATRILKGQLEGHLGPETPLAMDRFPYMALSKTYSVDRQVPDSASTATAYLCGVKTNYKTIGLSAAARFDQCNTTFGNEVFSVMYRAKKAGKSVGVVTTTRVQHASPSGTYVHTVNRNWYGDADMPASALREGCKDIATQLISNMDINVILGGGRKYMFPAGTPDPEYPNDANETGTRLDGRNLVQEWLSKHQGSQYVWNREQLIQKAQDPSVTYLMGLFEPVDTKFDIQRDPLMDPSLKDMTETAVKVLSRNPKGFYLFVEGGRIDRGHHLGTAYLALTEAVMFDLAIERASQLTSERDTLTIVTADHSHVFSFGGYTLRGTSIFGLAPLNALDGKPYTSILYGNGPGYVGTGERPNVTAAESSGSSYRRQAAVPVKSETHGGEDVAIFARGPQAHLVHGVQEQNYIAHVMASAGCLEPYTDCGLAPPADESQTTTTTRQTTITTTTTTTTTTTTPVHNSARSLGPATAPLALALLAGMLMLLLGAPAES
# [2] = biological target: T1, Alkaline phosphatase, tissue-nonspecific isozyme (Homo sapiens, UniProt P05186); assay: TNAP enzyme inhibition by screening hits, dose response, selectivity assay for mouse IAP inhibitor project, biochemical, human TNAP, uHTS hits (AID 488906); assay type: functional
# T1 sequence (P05186 whole entry): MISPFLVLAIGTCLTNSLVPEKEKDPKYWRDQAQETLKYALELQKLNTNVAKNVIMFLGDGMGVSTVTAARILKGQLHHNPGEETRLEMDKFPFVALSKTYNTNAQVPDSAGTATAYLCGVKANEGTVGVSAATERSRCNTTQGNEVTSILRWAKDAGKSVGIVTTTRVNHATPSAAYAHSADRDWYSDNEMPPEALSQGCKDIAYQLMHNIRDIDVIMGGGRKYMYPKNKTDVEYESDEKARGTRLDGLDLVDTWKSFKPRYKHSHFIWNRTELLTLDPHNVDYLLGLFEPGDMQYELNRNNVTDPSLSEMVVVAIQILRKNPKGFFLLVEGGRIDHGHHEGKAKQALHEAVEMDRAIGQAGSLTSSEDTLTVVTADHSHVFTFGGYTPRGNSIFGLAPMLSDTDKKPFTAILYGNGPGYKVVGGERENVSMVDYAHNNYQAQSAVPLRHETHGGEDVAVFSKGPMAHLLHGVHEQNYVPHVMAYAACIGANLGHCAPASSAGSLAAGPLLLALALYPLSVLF
# [3] = biological target: Intestinal-type alkaline phosphatase (Homo sapiens, UniProt P09923); assay: inhibition of human intestinal alkaline phosphatase – biochemical, dose response (AID 488876); assay type: functional
# Intestinal-type alkaline phosphatase (Homo sapiens, UniProt P09923), sequence (P09923 whole entry, the tested form may be a part): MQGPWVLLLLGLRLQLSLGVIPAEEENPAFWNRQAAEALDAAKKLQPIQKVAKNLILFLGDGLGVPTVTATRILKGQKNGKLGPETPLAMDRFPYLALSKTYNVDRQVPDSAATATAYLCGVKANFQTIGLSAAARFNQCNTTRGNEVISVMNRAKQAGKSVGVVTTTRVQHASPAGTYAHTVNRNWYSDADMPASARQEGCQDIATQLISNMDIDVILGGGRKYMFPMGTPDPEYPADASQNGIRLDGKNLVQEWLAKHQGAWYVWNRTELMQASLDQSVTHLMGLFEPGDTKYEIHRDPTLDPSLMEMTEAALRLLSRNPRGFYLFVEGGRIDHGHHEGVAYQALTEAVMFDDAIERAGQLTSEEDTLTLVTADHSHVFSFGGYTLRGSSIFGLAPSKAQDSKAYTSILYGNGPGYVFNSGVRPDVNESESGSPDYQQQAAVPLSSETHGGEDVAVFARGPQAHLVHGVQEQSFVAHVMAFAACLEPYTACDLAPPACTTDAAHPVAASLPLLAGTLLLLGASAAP
# [4] = biological target: T2, Carboxy-terminal domain RNA polymerase II polypeptide A small phosphatase 1 (Homo sapiens, UniProt Q9GZU7); assay: CTDSP1 inhibitors, concentration-response, biochemical, absorbance readout, ultra-high-throughput screen actives (AID 540297); assay type: functional
# T2 sequence (Q9GZU7 whole entry): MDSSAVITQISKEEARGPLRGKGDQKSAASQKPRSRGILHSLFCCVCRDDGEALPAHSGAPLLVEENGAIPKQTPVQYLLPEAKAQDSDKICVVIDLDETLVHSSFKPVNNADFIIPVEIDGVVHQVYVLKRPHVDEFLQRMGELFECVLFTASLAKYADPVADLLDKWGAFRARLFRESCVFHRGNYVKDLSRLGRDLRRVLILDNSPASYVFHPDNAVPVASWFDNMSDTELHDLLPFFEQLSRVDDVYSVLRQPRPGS
# [5] = biological target: DNA dC->dU-editing enzyme APOBEC-3A (Homo sapiens, UniProt P31941); assay: Dose Response confirmation of small molecule APOBEC3A DNA Deaminase Inhibitors via a fluorescence-based single-stranded DNA deaminase assay. [Related pubchem assays (depositor defined):AID493011, AID493024]; assay type: functional
# DNA dC->dU-editing enzyme APOBEC-3A, sequence (P31941 whole entry): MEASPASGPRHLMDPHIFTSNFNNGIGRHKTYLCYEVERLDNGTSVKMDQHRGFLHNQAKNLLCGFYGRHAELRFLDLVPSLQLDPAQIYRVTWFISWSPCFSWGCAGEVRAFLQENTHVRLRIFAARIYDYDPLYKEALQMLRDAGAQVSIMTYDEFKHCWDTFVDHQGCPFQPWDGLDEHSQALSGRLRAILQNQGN
# [6] = biological target: DNA dC->dU-editing enzyme APOBEC-3G (Homo sapiens, UniProt Q9HC16); assay type: functional;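 also: Dose-response counterscreen measuring inhibition of APOBEC3G DNA deaminase activity, run while confirming APOBEC3A inhibitors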
# DNA dC->dU-editing enzyme APOBEC-3G, sequence (Q9HC16 whole entry): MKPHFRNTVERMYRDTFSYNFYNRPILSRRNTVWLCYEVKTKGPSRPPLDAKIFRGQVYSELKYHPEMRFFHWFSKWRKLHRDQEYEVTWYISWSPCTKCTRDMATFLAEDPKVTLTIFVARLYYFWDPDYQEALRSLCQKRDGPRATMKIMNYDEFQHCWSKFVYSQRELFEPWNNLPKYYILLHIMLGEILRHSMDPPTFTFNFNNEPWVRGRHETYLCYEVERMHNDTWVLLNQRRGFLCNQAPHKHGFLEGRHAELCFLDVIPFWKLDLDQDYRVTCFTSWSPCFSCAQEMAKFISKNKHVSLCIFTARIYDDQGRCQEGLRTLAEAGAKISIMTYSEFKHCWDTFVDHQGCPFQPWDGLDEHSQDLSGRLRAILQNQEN
# HEK293 [7] = assay: inhibition of NOD1-driven NF-kB reporter – cell-based, luminescence, uHTS, primary screen (AID 1578); assay type: functional; details: Homo sapiens
# BJ [8] = assay: BJ-TERT fibroblast viability loss – cell-based, RAS-independent, luminescence, dose response (AID 1933); assay type: functional; details: Homo sapiens
# HEK293 [9] = assay: cells; assay type: functional, cell-based; details: Homo sapiens
# BJ [10] = assay: cells; assay type: functional, cell-based; details: Homo sapiens
# HEK293 [11] = assay: cells; assay type: functional, cell-based; details: Homo sapiens; remark: listed apart in the source
# [12] = biological target: Nucleotide-binding oligomerization domain-containing protein 2 (Homo sapiens, UniProt Q9HC29); assay: inhibition of NOD2-driven NF-kB reporter – cell-based, luminescence, uHTS, HEK293 (AID 1566); assay type: functional
# Nucleotide-binding oligomerization domain-containing protein 2, sequence (Q9HC29 whole entry, the tested form may be a part): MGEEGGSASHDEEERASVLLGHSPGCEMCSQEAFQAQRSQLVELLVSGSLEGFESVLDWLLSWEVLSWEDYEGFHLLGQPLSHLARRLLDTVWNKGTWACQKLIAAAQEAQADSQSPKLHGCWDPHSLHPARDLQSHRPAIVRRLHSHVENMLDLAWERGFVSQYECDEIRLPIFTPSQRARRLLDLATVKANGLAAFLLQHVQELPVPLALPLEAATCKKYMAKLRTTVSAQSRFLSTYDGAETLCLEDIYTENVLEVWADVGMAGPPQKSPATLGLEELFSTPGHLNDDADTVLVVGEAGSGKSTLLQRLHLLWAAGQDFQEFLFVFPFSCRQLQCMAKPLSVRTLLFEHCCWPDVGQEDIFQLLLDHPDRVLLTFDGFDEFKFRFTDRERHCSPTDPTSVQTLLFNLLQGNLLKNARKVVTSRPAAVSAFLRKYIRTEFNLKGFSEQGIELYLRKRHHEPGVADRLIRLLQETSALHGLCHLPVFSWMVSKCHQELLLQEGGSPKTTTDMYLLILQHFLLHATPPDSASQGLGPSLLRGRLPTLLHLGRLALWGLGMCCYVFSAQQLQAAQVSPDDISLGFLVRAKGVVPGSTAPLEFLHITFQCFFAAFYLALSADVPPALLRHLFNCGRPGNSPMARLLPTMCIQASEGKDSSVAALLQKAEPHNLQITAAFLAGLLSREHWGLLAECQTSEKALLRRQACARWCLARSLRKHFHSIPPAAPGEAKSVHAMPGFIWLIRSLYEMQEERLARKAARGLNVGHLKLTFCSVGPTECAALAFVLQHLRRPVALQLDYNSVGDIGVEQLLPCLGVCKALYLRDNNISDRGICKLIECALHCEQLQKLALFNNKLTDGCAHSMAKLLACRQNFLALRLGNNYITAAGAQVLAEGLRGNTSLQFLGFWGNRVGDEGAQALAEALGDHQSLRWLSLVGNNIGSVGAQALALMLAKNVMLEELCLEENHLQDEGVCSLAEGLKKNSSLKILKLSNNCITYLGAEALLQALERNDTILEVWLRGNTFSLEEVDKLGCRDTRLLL
# HEK293 [13] = assay: NOD2 signaling inhibitors in MDP-stimulated cells, cell-based, uHTS, luminescence (AID 2001); assay type: functional; details: Homo sapiens
# HEK293 [14] = assay: cells; assay type: functional, cell-based; details: Homo sapiens; remark: listed apart in the source
# [15] = microbe, parasite or virus in culture; assay type: functional; details: Mycobacterium tuberculosis
# [16] = viability of PTEN-deleted HCT116 cells – cell-based, HCT116 PTEN knockout, dose response (AID 1047); assay type: functional;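 also: HCT116 colon tumor cells with PTEN knocked out; cells exposed to compound for 60 hours before readout; potency for loss of cell viability measured by luminescence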
# [17] = viability of HCT116 lacking mutant beta-catenin – cell-based, human colon tumor, dose response (AID 1045); assay type: functional;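 also: HCT116 colon tumor cells with beta catenin knocked out; cells exposed to compound for 60 hours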
# BJ [18] = assay: BJ-TERT-LT-ST fibroblast viability loss – cell-based, RAS-independent, luminescence, dose response (AID 1935); assay type: functional; details: Homo sapiens;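 also: BJ fibroblasts immortalized with TERT plus LT and ST oncogenes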
# [19] = DRD fibroblast viability loss – cell-based, non-viral oncogenic, luminescence, dose response (AID 1934); assay type: functional; details: Homo sapiens
# [20] = Luminescence Cell-Based Dose Retest to Confirm Inhibitors of Cancer Stem Cells. [Related pubchem assays (depositor defined):AID2717, AID2721]; assay type: functional; details: Homo sapiens
# [21] = biological target: 1-acylglycerol-3-phosphate O-acyltransferase ABHD5/Perilipin-5 (Homo sapiens, UniProt Q00G26+Q8WTS1); assay: Luminescence-based biochemical high throughput dose response assay for inhibitors of the interaction of the lipase co-activator protein, abhydrolase domain containing 5 (ABHD5) with perilipin-5 (MLDP; PLIN5) (2K validation set). [Related pubchem assays (depositor defined):AID493035, AID493241]
# 1-acylglycerol-3-phosphate O-acyltransferase ABHD5/Perilipin-5, sequence (Q00G26 whole entry, the tested form may be a part): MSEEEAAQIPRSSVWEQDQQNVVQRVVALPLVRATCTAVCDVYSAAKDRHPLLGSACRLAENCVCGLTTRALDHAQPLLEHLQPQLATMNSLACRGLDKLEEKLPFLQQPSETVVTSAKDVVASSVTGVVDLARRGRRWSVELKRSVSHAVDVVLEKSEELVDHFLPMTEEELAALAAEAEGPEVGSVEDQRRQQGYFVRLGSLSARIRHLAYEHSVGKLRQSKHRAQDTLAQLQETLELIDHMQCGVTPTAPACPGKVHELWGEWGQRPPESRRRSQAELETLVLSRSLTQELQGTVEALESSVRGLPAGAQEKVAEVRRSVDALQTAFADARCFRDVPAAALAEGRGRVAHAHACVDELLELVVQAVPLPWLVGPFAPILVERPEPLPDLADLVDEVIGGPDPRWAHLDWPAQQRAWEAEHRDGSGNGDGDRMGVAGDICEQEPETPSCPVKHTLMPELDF
# 1-acylglycerol-3-phosphate O-acyltransferase ABHD5/Perilipin-5, sequence (Q8WTS1 whole entry, the tested form may be a part): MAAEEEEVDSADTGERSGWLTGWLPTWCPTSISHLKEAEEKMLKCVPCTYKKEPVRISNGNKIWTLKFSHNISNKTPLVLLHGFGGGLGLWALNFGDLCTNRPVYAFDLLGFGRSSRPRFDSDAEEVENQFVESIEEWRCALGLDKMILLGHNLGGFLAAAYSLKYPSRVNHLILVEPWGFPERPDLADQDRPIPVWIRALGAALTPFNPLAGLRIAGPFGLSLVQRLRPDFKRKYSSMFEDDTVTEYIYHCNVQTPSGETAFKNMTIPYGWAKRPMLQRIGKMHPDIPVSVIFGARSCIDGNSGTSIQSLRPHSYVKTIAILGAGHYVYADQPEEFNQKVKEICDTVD
# Perilipin-1/ABHD5 = Perilipin-1/ABHD5 (Homo sapiens, UniProt O60240+Q8WTS1); assay: Luminescence-based biochemical high throughput dose response assay for inhibitors of the interaction of the lipase co-activator protein, abhydrolase domain containing 5 (ABHD5) with perilipin-1 (PLIN1) (2K validation set). [Related pubchem assays (depositor defined):AID493027, AID493057]
# Perilipin-1/ABHD5, sequence (Q8WTS1 whole entry, the tested form may be a part): as above
# Perilipin-1/ABHD5, sequence (O60240 whole entry, the tested form may be a part): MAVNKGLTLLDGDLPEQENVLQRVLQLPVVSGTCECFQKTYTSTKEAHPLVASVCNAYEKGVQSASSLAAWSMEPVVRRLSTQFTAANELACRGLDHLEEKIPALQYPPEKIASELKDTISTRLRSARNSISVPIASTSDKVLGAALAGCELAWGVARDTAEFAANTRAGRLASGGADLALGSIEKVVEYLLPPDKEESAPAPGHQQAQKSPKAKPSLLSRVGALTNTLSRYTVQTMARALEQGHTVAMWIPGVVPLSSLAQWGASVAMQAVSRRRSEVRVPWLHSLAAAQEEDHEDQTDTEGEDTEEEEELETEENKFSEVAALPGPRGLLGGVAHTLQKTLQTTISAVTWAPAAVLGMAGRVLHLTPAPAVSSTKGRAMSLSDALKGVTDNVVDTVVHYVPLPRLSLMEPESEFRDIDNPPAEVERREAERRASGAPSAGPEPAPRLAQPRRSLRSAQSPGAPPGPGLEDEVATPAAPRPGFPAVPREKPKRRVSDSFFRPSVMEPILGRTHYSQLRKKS
# [22] = biological target: T3, Replicative DNA helicase DnaB (Mycobacterium tuberculosis, UniProt P9WMR3); assay: DnaB intein splicing inhibitors, dose response, biochemical, cell-free fluorescence (AID 449749); assay type: functional
# T3 sequence (P9WMR3 whole entry): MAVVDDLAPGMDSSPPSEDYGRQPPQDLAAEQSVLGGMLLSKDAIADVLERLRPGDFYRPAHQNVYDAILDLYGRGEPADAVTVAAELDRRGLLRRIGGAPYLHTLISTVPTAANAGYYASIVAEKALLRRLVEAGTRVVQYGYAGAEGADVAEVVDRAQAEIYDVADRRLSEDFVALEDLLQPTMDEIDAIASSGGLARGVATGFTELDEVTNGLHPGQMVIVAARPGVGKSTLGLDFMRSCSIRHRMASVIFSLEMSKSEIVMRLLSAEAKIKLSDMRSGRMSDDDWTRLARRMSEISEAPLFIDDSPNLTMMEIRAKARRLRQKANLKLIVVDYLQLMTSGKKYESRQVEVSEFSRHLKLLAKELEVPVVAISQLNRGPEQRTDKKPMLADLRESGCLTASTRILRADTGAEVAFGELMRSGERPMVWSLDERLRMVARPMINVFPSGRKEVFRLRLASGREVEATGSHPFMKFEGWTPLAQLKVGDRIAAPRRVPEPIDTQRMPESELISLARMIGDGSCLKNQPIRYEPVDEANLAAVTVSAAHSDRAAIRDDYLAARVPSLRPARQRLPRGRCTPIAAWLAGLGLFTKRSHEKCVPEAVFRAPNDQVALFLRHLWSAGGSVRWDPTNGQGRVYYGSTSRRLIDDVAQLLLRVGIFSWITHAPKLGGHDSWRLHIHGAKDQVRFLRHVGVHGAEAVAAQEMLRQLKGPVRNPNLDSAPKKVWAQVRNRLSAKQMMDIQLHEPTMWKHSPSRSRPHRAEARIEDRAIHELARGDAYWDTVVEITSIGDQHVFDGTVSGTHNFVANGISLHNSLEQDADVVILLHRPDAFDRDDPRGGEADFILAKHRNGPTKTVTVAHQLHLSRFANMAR
# BJ [23] = assay: growth inhibition of engineered Ras-driven BJ cells – cell-based, alamar blue fluorescence, cherrypicked samples, dose response (AID 2631); assay type: functional; details: Homo sapiens;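 also: confirmatory dose-response assay in RAS-dependent BJ fibroblasts engineered with TERT, LT and ST, with cytotoxicity read by fluorescence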
# Protein RecA = biological target: T4, Protein RecA (Mycobacterium tuberculosis, UniProt P9WHJ3); assay: Fluorescence Cell-Free Homogeneous Dose Retest to Identify Inhibitors of RecA-Intein Splicing Activity. [Related pubchem assays (depositor defined):AID2097, AID2223, AID489010, AID492950]; assay type: functional
# T4 sequence (P9WHJ3 whole entry): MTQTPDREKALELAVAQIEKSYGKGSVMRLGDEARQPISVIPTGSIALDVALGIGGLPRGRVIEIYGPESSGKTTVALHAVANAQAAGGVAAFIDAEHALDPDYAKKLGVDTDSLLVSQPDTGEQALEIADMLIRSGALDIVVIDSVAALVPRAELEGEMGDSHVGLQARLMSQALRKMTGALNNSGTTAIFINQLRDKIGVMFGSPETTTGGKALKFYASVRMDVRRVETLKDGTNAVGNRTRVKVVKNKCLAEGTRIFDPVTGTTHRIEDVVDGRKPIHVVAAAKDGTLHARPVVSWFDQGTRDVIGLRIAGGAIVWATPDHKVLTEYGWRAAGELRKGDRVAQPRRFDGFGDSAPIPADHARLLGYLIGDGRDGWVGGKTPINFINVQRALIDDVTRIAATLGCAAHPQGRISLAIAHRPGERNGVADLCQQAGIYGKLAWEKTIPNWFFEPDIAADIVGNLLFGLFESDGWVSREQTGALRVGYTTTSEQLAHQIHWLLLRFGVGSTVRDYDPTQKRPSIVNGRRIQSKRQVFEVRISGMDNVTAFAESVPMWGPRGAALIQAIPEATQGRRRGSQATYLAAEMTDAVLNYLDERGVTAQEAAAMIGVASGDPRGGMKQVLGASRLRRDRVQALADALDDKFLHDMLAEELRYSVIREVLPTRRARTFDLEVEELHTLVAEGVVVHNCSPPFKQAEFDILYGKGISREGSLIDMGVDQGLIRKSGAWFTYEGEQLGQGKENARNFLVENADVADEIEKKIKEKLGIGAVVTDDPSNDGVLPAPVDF
# Bcl-2-related protein A1 = biological target: T5, Bcl-2-related protein A1 (Mus musculus, UniProt Q07440); assay type: functional;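 also: confirmatory dose–response counterscreen on Bfl-1, used to check hits from a UBC13 polyubiquitin inhibitor campaign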
# T5 sequence (Q07440 whole entry): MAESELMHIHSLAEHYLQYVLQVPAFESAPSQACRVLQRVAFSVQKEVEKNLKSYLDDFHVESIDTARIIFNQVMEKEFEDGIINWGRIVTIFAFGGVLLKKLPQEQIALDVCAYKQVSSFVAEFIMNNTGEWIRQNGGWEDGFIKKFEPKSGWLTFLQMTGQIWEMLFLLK
# [24] = biological target: T6, Ubiquitin-conjugating enzyme E2 N (Homo sapiens, UniProt P61088); assay type: functional
# T6 sequence (P61088 whole entry): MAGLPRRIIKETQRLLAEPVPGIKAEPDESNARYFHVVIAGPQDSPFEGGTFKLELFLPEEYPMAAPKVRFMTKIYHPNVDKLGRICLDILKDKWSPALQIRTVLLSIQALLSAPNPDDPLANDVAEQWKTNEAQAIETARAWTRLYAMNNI
# [25] = biological target: T6, Ubiquitin-conjugating enzyme E2 N; assay type: functional; remark: listed apart in the source
# [26] = biological target: Glyceraldehyde-3-phosphate dehydrogenase (Homo sapiens, UniProt P04406)
# [27] = biological target: T1, Alkaline phosphatase, tissue-nonspecific isozyme; assay: potency against alkaline phosphatase TNAP – biochemical, luminescent, dose response, SAR follow-up (AID 1056)
# Estrogen receptor beta, sequence (Q92731 whole entry): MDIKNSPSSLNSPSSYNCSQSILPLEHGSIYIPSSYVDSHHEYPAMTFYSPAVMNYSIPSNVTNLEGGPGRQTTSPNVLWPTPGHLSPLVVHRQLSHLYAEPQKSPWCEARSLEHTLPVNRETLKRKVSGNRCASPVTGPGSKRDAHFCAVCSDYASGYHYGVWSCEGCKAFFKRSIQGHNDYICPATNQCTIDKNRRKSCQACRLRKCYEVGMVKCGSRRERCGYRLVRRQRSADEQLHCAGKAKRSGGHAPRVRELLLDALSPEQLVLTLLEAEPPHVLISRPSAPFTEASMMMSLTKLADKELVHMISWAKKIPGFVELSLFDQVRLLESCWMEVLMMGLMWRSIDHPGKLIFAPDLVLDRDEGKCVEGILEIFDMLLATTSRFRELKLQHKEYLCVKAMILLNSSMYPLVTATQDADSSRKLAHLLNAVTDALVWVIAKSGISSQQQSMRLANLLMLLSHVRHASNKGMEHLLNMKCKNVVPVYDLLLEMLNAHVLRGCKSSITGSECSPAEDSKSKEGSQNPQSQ
smiles,measurement,setting,value
CCOc1ccccc1N1CCN(S(=O)(=O)c2ccc3c4c(cccc24)C(=O)N3)CC1,IC50,Estrogen receptor beta,9.19 µM (not active)
same,IC50,[1],7.13 µM (active)
same,IC50,[2],81.2 µM (active)
same,IC50,[3],> 100 µM (inactive)
same,IC50,[4],7.47 µM (active)
CCc1nc(-c2ccc(C)nc2OC)no1,IC50,[5],3.49 µM (active)
same,IC50,[6],4.74 µM (active)
COc1ccc(CN(CCC(c2ccccc2)c2ccc(OC(C)C)cc2)C(=O)CCl)cc1OC (stereo unspecified),EC50,HEK293 [7],17.9 µM (active)
same,EC50,BJ [8],0.605 µM (active)
same,IC50,HEK293 [9],6.94 µM (active)
same,EC50,BJ [10],4.25 µM (active)
same,IC50,HEK293 [11],10.6 µM (active)
same,EC50,[12],> 20 µM (inactive)
same,IC50,HEK293 [13],13.9 µM (inactive)
same,IC50,HEK293 [14],> 20 µM (inactive)
same,CC50,[15],1.49 µM (active)
same,EC50,[16],6.29 µM (active)
same,EC50,[17],6.08 µM (active)
same,EC50,BJ [18],4.09 µM (inconclusive)
same,EC50,[19],3.74 µM (active)
same,AC50,[20],1.25 µM (active)
same,IC50,[21],3.57 µM (active)
same,IC50,Perilipin-1/ABHD5,3.17 µM (active)
same,AC50,[22],0.335 µM (active)
same,EC50,BJ [23],3.43 µM (active)
same,EC50,Protein RecA,0.333 µM (active)
COc1ccc(/C=N\NC(=O)c2sc(N)nc2C)cc1OC,IC50,Bcl-2-related protein A1,> 20 µM (inactive)
same,IC50,[24],0.507 µM (active)
same,IC50,[25],0.548 µM (active)
CC(C)CSc1nnc(N)[nH]1,IC50,[26],> 100 µM (not active)
same,IC50,[27],60.8 µM (active)
